According to ChEMBL document CHEMBL2331468, “Antimalarial activities of 6-iodouridine and its prodrugs and potential for combination therapy” (J Med Chem, 2013):
The source made the active and inactive calls. No cut-off for these calls is given here.

Assays:
Plasmodium berghei [1] = assay: Antimalarial activity against Plasmodium berghei infected in ip dosed BALB/C mouse; assay type: functional, organism-based
Plasmodium falciparum [2] = assay: Antimalarial activity against Plasmodium falciparum after 72 hrs by lactate dehydrogenase assay in absence of uridine; assay type: functional, organism-based
Plasmodium chabaudi [3] = assay: Antimalarial activity against Plasmodium chabaudi chabaudi infected in mouse at 6 mg/day administered as infusion on days 4 to 6 relative to untreated control; assay type: functional, organism-based
Plasmodium falciparum [4] = assay: Antimalarial activity against Plasmodium falciparum 3D7 after 72 hrs by lactate dehydrogenase assay; assay type: functional, organism-based; conditions: 3D7, 72 h
C32 = assay: Cytotoxicity against human C32 cells after 48 hrs by MTT assay in presence of uridine; assay type: cell-based; conditions: c32, 48 h
Plasmodium falciparum [5] = assay: Antimalarial activity against Plasmodium falciparum FCR3 after 72 hrs by lactate dehydrogenase assay; assay type: functional; conditions: FCR-3/Gambia
Plasmodium falciparum [6] = assay: Antimalarial activity against chloroquine/multidrug-resistant Plasmodium falciparum MB after 72 hrs by lactate dehydrogenase assay; assay type: functional, organism-based
Plasmodium berghei [7] = assay: Antimalarial activity against Plasmodium berghei infected in BALB/c mouse assessed as reduction in parasitemia at 6 to 12 mg/dose, ip on days 5 to 7; assay type: functional, organism-based
Plasmodium falciparum [8] = assay: Antimalarial activity against chloroquine/multidrug-resistant Plasmodium falciparum SB after 72 hrs by lactate dehydrogenase assay; assay type: functional, organism-based
Mus musculus [9] = assay: Toxicity against BALB/c mouse infected with Plasmodium berghei assessed as loss in body weight at 6 mg/dose, ip in presence of uridine; assay type: organism-based; conditions: in vivo
Plasmodium berghei [10] = assay: Antimalarial activity against Plasmodium berghei infected in BALB/c mouse assessed as reduction in parasitemia at 3 mg/dose, ip on days 5 to 7 in presence of uridine; assay type: functional, organism-based
[11] = Therapeutic index, ratio of IC50 for CHO cells to IC50 for Plasmodium falciparum in absence of uridine; assay type: cell-based; conditions: hamster, CHO cells versus Plasmodium falciparum; read-out: Ratio IC50
Plasmodium berghei [12] = assay: Antimalarial activity against Plasmodium berghei infected in BALB/c mouse assessed as reduction in parasitemia at 3 mg/dose, ip on days 5 to 7; assay type: functional, organism-based
[13] = Therapeutic index, ratio of IC50 for CHO cells to IC50 for Plasmodium falciparum in presence of uridine; assay type: cell-based; conditions: hamster, CHO cells versus Plasmodium falciparum; read-out: Ratio IC50
Mus musculus [14] = assay: Toxicity against BALB/c mouse infected with Plasmodium berghei assessed as loss in body weight at 12 mg/dose, ip in presence of uridine; assay type: organism-based; conditions: in vivo
Plasmodium falciparum [15] = assay: Antimalarial activity against chloroquine/mefloquine-resistant Plasmodium falciparum KC98 after 72 hrs by lactate dehydrogenase assay; assay type: functional, organism-based; conditions: KC98, 72 h
Plasmodium falciparum [16] = assay: Growth inhibition of Plasmodium falciparum at >250 uM after 72 hrs by lactate dehydrogenase assay in absence of uridine; assay type: functional, organism-based
Plasmodium chabaudi [17] = assay: Antimalarial activity against Plasmodium chabaudi chabaudi infected in BALB/c mouse assessed as reduction in parasitemia at 6 mg/day administered as infusion on days 4 to 6 measured on days 10 to 13 in presence of uridine; assay type: functional, organism-based
Plasmodium falciparum [18] = assay: Antimalarial activity against Plasmodium falciparum after 72 hrs by lactate dehydrogenase assay in presence of uridine; assay type: functional, organism-based
Plasmodium chabaudi [19] = assay: Antimalarial activity against Plasmodium chabaudi chabaudi infected in BALB/c mouse assessed as reduction in parasitemia at 6 mg/day administered as infusion on days 4 to 6 measured on days 10 to 13; assay type: functional, organism-based
[20] = Selectivity index for Plasmodium falciparum over Plasmodium berghei in presence of uridine; assay type: functional
Plasmodium berghei [21] = assay: Antimalarial activity against Plasmodium berghei infected in BALB/c mouse assessed as reduction in parasitemia at 6 to 12 mg/dose, ip on days 5 to 7 in presence of uridine; assay type: functional, organism-based
CHO [22] = assay: Cytotoxicity against CHO cells at 5 to 250 uM after 48 hrs by MTT assay in presence of uridine; assay type: cell-based, Cricetulus griseus; conditions: chinese hamster
Plasmodium chabaudi [23] = assay: Antimalarial activity against Plasmodium chabaudi chabaudi infected in ip dosed BALB/C mouse; assay type: functional, organism-based
Plasmodium berghei [24] = assay: Antimalarial activity against Plasmodium berghei infected in mouse assessed as reduction of parasitemia at 50 ug/dose, ip on days 4 to 7; assay type: functional, organism-based
Mus musculus [25] = assay: Toxicity against BALB/c mouse infected with Plasmodium berghei assessed as loss in body weight at 3 mg/dose, ip in presence of uridine; assay type: organism-based; conditions: in vivo
Plasmodium falciparum [26] = assay: Antimalarial activity against chloroquine/mefloquine-resistant Plasmodium falciparum KC98358 after 72 hrs by lactate dehydrogenase assay; assay type: functional, organism-based; conditions: KC98358, 72 h
Plasmodium falciparum [27] = assay: Antimalarial activity against ring-stage Plasmodium falciparum assessed as decrease in viability at 4 uM incubated for 3 hrs followed by compound washout measured after 48 hrs by SYBR-Green staining-based fluorescence analysis relative to untreated control; assay type: functional, organism-based
Plasmodium falciparum [28] = assay: Antimalarial activity against mature-stage Plasmodium falciparum assessed as decrease in viability at 4 uM incubated for 3 hrs followed by compound washout measured after 48 hrs by SYBR-Green staining-based fluorescence analysis relative to untreated control; assay type: functional, organism-based
Plasmodium falciparum [29] = assay: Antimalarial activity against chloroquine-resistant Plasmodium falciparum ItG after 72 hrs by lactate dehydrogenase assay; assay type: functional, organism-based
[30] = Hemolytic activity against human erythrocytes at 250 uM; assay type: ADME, cell-based; conditions: erythrocyte
CHO [31] = assay: Cytotoxicity against CHO cells assessed as growth inhibition after 48 hrs by MTT assay in absence of uridine; assay type: cell-based; conditions: Cricetulus griseus
Plasmodium chabaudi [32] = assay: Antimalarial activity against Plasmodium chabaudi chabaudi infected in mouse assessed as reduction in parasitemia at 6.9 mg/day administered as infusion on days 4 to 6; assay type: functional, organism-based
Plasmodium berghei [33] = assay: Antimalarial activity against Plasmodium berghei infected in mouse assessed as reduction of parasitemia at 8 mg/dose, ip on days 4 to 7 relative to untreated control; assay type: functional, organism-based
Plasmodium chabaudi [34] = assay: Antimalarial activity against Plasmodium chabaudi chabaudi infected in mouse assessed as reduction in parasitemia at 7.1 mg/day administered as infusion on days 4 to 6; assay type: functional, organism-based

For `C[n+]1cnn(CCCCCCCCCCCCn2c[n+](C)cn2)c1`, the Activity (Plasmodium berghei [1]) was “Active”.
With `O=c1cc(I)n([C@@H]2O[C@H](CO)[C@@H](O)[C@H]2O)c(=O)[nH]1` the IC50 (Plasmodium falciparum [2]) was 13.2 µM, the Activity (Plasmodium chabaudi [3]) was “inactive” and the IC50 (Plasmodium falciparum [4]) was 27 µM. For the same compound, the IC50 (Plasmodium berghei [1]) was 303 µM, the Activity (C32) was “Non-toxic” and the IC50 (Plasmodium falciparum [5]) was 56.5 µM. For the same compound, the IC50 (Plasmodium falciparum [6]) was 18.7 µM, the Activity (Plasmodium berghei [7]) was “Active” and the IC50 (Plasmodium falciparum [8]) was 29.1 µM. For the same compound, the Activity (Mus musculus [9]) was “Toxic”, the Activity (Plasmodium berghei [10]) was “Active” and the selectivity ratio [11] was 38. For the same compound, the Activity (Plasmodium berghei [12]) was “Active”, the selectivity ratio [13] was 35 and the Activity (Mus musculus [14]) was “Toxic”. The IC50 (Plasmodium falciparum [15]) was 2.3 µM, the “growth inhibition (GI)” value (Plasmodium falciparum [16]) was “Active” and the Activity (Plasmodium chabaudi [17]) was “Active”. The IC50 (Plasmodium falciparum [18]) was 11.2 µM, the Activity (Plasmodium chabaudi [19]) was “inactive” and the Selectivity Index [20] was 2. The Activity (Plasmodium berghei [21]) was “Active”, the Activity (CHO [22]) was “Toxic” and the IC50 (Plasmodium chabaudi [23]) was 300 µM. For the same compound, the Activity (Plasmodium berghei [24]) was “Active”, the Activity (Mus musculus [25]) was “Non-toxic” and the IC50 (Plasmodium falciparum [26]) was 1.4 µM. The Activity (Plasmodium falciparum [27]) was “Active”, the Activity (Plasmodium falciparum [28]) was “inactive” and the IC50 (Plasmodium falciparum [29]) was 1.2 µM. For the same compound, the Activity [30] was “Toxic” and the IC50 (CHO [31]) was 491 µM.
For `CCCC(=O)OC[C@H]1O[C@@H](n2c(I)cc(=O)[nH]c2=O)[C@H](O)[C@@H]1O`, the Activity (Plasmodium chabaudi [32]) was “Active” and the IC50 (Plasmodium falciparum [5]) was 166 µM.
With `CC[C@H]1OC(=O)[C@H](C)[C@@H](O[C@H]2C[C@@](C)(OC)[C@@H](O)[C@H](C)O2)[C@H](C)[C@@H](O[C@@H]2O[C@H](C)C[C@H](N(C)C)[C@H]2O)[C@](C)(O)C[C@@H](C)CN(C)[C@H](C)[C@@H](O)[C@]1(C)O` the Activity (Plasmodium berghei [33]) was “inactive”.
With `CCC(=O)OC[C@H]1O[C@@H](n2c(I)cc(=O)[nH]c2=O)[C@H](O)[C@@H]1O` the IC50 (Plasmodium falciparum [5]) was 85 µM and the Activity (Plasmodium chabaudi [34]) was “inactive”.
